Experimental data: US20230303549A1, “SUBSTITUTED HETEROARYLOXYPYRIDINES, THE SALTS THEREOF AND THEIR USE AS HERBICIDAL AGENTS” (Bayer Aktiengesellschaft, priority 2020, published 2023)

Tests used:
Type in all cases: in vivo
Stellaria media (STEME) [1] = assay: Pre-emergence herbicide efficacy at 320 g/ha, greenhouse pot test; settings: visual scoring vs untreated control after about 3 weeks
How it was run: (§1)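 Weed seeds were sown in sandy loam in pots, one mono- or dicot species per pot, and covered with soil. WP or EC formulations were sprayed onto the soil surface as aqueous suspension or emulsion with 0.5% additive at 600 L/ha water. Visual scoring after about 3 weeks, % activity versus untreated controls.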

Poa annua (POAAN) [2] = assay: as above; settings: visual scoring vs untreated control after about 3 weeks
How it was run: as §1

Bassia scoparia (KCHSC) [3] = assay: as above; settings: 320 g/ha, visual scoring vs untreated control after about 3 weeks
How it was run: as §1

Veronica persica (VERPE) [4] = assay: as above; settings: visual scoring vs untreated control after about 3 weeks
How it was run: as §1

[5] = system: Digitaria sanguinalis (DIGSA); assay: as above; settings: visual scoring vs untreated control after about 3 weeks
How it was run: as §1

[6] = system: Abutilon theophrasti (ABUTH); assay: as above; settings: visual scoring vs untreated control after about 3 weeks
How it was run: as §1

Setaria viridis (SETVI) [7] = assay: as above; settings: visual scoring vs untreated control after about 3 weeks
How it was run: as §1

[8] = system: Matricaria inodora (MATIN); assay: as above; settings: visual scoring vs untreated control after about 3 weeks
How it was run: as §1

Lolium rigidum (LOLRI) = assay: as above; settings: visual scoring vs untreated control after about 3 weeks
How it was run: as §1

[9] = system: Echinochloa crus-galli (ECHCG); assay: as above; settings: visual scoring vs untreated control after about 3 weeks
How it was run: as §1

[10] = system: Alopecurus myosuroides (ALOMY); assay: as above; settings: visual scoring vs untreated control after about 3 weeks
How it was run: as §1

[11] = system: Amaranthus retroflexus (AMARE); assay: as above; settings: visual scoring vs untreated control after about 3 weeks
How it was run: as §1

Veronica persica (VERPE) [12] = assay: Pre-emergence herbicide efficacy at 80 g/ha, greenhouse pot test; settings: visual scoring vs untreated control after about 3 weeks
Excerpt: (§2) Seeds of monocotyledonous and dicotyledonous weed plants and crop plants were placed in plastic or organic planting pots and covered with soil. The compounds of the invention, formulated in the form of wettable powders (WP) or as emulsion concentrates (EC), were then applied to the surface of the covering soil as aqueous suspension or emulsion with addition of 0.5% additive at a water application rate of […] (converted). After the treatment, the pots were placed in a greenhouse and kept under good growth conditions for the test plants. After about 3 weeks, the effect of the preparations was scored visually in comparison with untreated controls as percentages. For example, 100% activity=the plants have died, 0% activity=like control plants. Tables D1 to D12 below show the effects of selected compounds of the general formula (I) according to Table 1 on various harmful plants and an application rate corresponding to 80 g/ha, which were obtained by the experimental procedure mentioned above.

[13] = system: Polygonum convolvulus (POLCO); assay: as above; settings: visual scoring vs untreated control after about 3 weeks
Excerpt: as §2

[14] = system: Abutilon theophrasti (ABUTH); assay: as above; settings: visual scoring vs untreated control after about 3 weeks
Excerpt: as §2

[15] = system: Alopecurus myosuroides (ALOMY); assay: as above; settings: visual scoring vs untreated control after about 3 weeks
Excerpt: as §2

Viola tricolor (VIOTR) [16] = assay: as above; settings: visual scoring vs untreated control after about 3 weeks
Excerpt: as §2

[17] = system: Amaranthus retroflexus (AMARE); assay: as above; settings: visual scoring vs untreated control after about 3 weeks
Excerpt: as §2

[18] = system: Alopecurus myosuroides (ALOMY); assay: Post-emergence herbicidal efficacy at 80 g/ha, greenhouse pot test; settings: visual rating vs untreated control after about 3 weeks
Method: (§3) Seeds of monocotyledonous and dicotyledonous weeds and crop plants were placed in sandy loam in plastic or organic planting pots, covered with soil and cultivated in a greenhouse under controlled growth conditions. 2 to 3 weeks after sowing, the test plants were treated at the one-leaf stage. The compounds of the invention, formulated in the form of wettable powders (WP) or as emulsion concentrates (EC), were then sprayed onto the green parts of the plants as aqueous suspension or emulsion with addition of 0.5% additive at a water application rate of 600 l/ha (converted). After the test plants had been kept in the greenhouse under optimum growth conditions for about 3 weeks, the activity of the preparations was rated visually in comparison to untreated controls. For example, 100% activity=the plants have died, 0% activity=like control plants. Tables B1 to B6 below show the effects of selected compounds of the general formula (I) according to Table 1 on various harmful plants and an application rate corresponding to 80 g/ha, which were obtained by the experimental procedure mentioned above.

Viola tricolor (VIOTR) [19] = assay: as above; settings: visual rating vs untreated control after about 3 weeks
Method: as §3

[20] = system: Amaranthus retroflexus (AMARE); assay: as above; settings: visual rating vs untreated control after about 3 weeks
Method: as §3

Stellaria media (STEME) [21] = assay: Post-emergence herbicidal efficacy at 320 g/ha, greenhouse pot test; settings: visual rating vs untreated control after about 3 weeks
How it was run: (§4)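 Scoring was visual, about 3 weeks post-treatment, versus untreated plants on a 0–100% scale (100% = dead). Foliar application to one-leaf-stage greenhouse weeds in sandy loam, compounds as aqueous WP/EC suspension or emulsion with 0.5% additive, 600 L/ha spray volume.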

Veronica persica (VERPE) [22] = assay: as above; settings: 320 g/ha, visual rating vs untreated control after about 3 weeks
How it was run: as §4

[23] = system: Alopecurus myosuroides (ALOMY); assay: as above; settings: visual rating vs untreated control after about 3 weeks
How it was run: as §4

[24] = system: Amaranthus retroflexus (AMARE); assay: as above; settings: visual rating vs untreated control after about 3 weeks
How it was run: as §4

[25] = system: Digitaria sanguinalis (DIGSA); assay: Pre-emergence herbicide efficacy at 80 g/ha, greenhouse pot test; settings: visual scoring vs untreated control after about 3 weeks
Excerpt: as §2

[26] = system: Matricaria inodora (MATIN); assay: as above; settings: visual scoring vs untreated control after about 3 weeks
Excerpt: as §2

Veronica persica (VERPE) [27] = assay: Post-emergence herbicidal efficacy at 80 g/ha, greenhouse pot test; settings: visual rating vs untreated control after about 3 weeks
Method: as §3

[28] = system: Polygonum convolvulus (POLCO); assay: as above; settings: visual rating vs untreated control after about 3 weeks
Method: as §3

Poa annua (POAAN) [29] = assay: Post-emergence herbicidal efficacy at 320 g/ha, greenhouse pot test; settings: visual rating vs untreated control after about 3 weeks
How it was run: as §4

Bassia scoparia (KCHSC) [30] = assay: as above; settings: visual rating vs untreated control after about 3 weeks
How it was run: as §4

[31] = system: Digitaria sanguinalis (DIGSA); assay: as above; settings: visual rating vs untreated control after about 3 weeks
How it was run: as §4

[32] = system: Abutilon theophrasti (ABUTH); assay: as above; settings: visual rating vs untreated control after about 3 weeks
How it was run: as §4

Setaria viridis (SETVI) [33] = assay: Pre-emergence herbicide efficacy at 80 g/ha, greenhouse pot test; settings: visual scoring vs untreated control after about 3 weeks
Excerpt: as §2

Structure (SMILES) | Pre-emergence efficacy against Stellaria media (STEME) (Stellaria media (STEME) [1]) | Pre-emergence efficacy against Poa annua (POAAN) (Poa annua (POAAN) [2]) | Pre-emergence efficacy against Bassia scoparia (KCHSC) (Bassia scoparia (KCHSC) [3]) | Pre-emergence efficacy against Veronica persica (VERPE) (Veronica persica (VERPE) [4]) | Pre-emergence efficacy against Digitaria sanguinalis (DIGSA) [5] | Pre-emergence efficacy against Abutilon theophrasti (ABUTH) [6] | Pre-emergence efficacy against Setaria viridis (SETVI) (Setaria viridis (SETVI) [7]) | Pre-emergence efficacy against Matricaria inodora (MATIN) [8] | Pre-emergence efficacy against Echinochloa crus-galli (ECHCG) [9] | Pre-emergence efficacy against Alopecurus myosuroides (ALOMY) [10] | Pre-emergence efficacy against Amaranthus retroflexus (AMARE) [11] | Pre-emergence efficacy against Veronica persica (VERPE) (Veronica persica (VERPE) [12]) | Pre-emergence efficacy against Polygonum convolvulus (POLCO) [13] | Pre-emergence efficacy against Viola tricolor (VIOTR) (Viola tricolor (VIOTR) [16]) | Pre-emergence efficacy against Amaranthus retroflexus (AMARE) [17] | Post-emergence efficacy against Alopecurus myosuroides (ALOMY) [18] | Post-emergence efficacy against Viola tricolor (VIOTR) (Viola tricolor (VIOTR) [19]) | Post-emergence efficacy against Amaranthus retroflexus (AMARE) [20] | Post-emergence action against Stellaria media (STEME) (Stellaria media (STEME) [21]) | Post-emergence efficacy against Veronica persica (VERPE) (Veronica persica (VERPE) [22]) | also measured
Cc1cc(C)c(-c2cc(C(F)(F)F)no2)c(Oc2ncc(Cl)cn2)n1 [Example I-2] | 100% | 100% | 90% | 100% | 100% | 100% | 100% | 100% | 100% | 100% | 100% | 90% | 80% | 90% | 100% | 90% | 90% | 100% | 100% | 100% | Pre-emergence efficacy against Lolium rigidum (LOLRI) (Lolium rigidum (LOLRI)): 90%; Pre-emergence efficacy against Abutilon theophrasti (ABUTH) [14]: 90%; Pre-emergence efficacy against Alopecurus myosuroides (ALOMY) [15]: 80%; Post-emergence efficacy against Alopecurus myosuroides (ALOMY) [23]: 90%; Post-emergence efficacy against Amaranthus retroflexus (AMARE) [24]: 100%
Cc1cc(C)c(-c2cc(C(F)F)on2)c(Oc2ncc(F)cn2)n1 [Example I-3] | 100% | 100% | 100% | 100% | 100% | 100% | 100% | 100% | 100% | 100% | 100% | 80% | 90% | 100% | 100% | 90% | 100% | 90% | 90% | 100% | Pre-emergence efficacy against Digitaria sanguinalis (DIGSA) [25]: 100%; Pre-emergence efficacy against Matricaria inodora (MATIN) [26]: 100%; Post-emergence efficacy against Veronica persica (VERPE) (Veronica persica (VERPE) [27]): 80%; Post-emergence efficacy against Polygonum convolvulus (POLCO) [28]: 100%; Post-emergence efficacy against Poa annua (POAAN) (Poa annua (POAAN) [29]): 100%; Post-emergence efficacy against Bassia scoparia (KCHSC) (Bassia scoparia (KCHSC) [30]): 100%; Post-emergence efficacy against Digitaria sanguinalis (DIGSA) [31]: 90%; Post-emergence efficacy against Abutilon theophrasti (ABUTH) [32]: 90%; Post-emergence efficacy against Amaranthus retroflexus (AMARE) [24]: 90%
Cc1cc(C)c(-c2cc(C(F)Cl)no2)c(Oc2ncc(Cl)cn2)n1 (stereo not shown) [Example I-5] | 100% | 100% | 100% | 90% | 100% | 100% | 100% | 100% | 90% | 100% | 100% | 90% | 90% | 90% | 100% | 80% | 80% | 100% | 90% | 100% | Pre-emergence efficacy against Abutilon theophrasti (ABUTH) [14]: 90%; Pre-emergence efficacy against Setaria viridis (SETVI) (Setaria viridis (SETVI) [33]): 90%; Pre-emergence efficacy against Matricaria inodora (MATIN) [26]: 90%; Pre-emergence efficacy against Alopecurus myosuroides (ALOMY) [15]: 90%; Post-emergence efficacy against Bassia scoparia (KCHSC) (Bassia scoparia (KCHSC) [30]): 90%; Post-emergence efficacy against Digitaria sanguinalis (DIGSA) [31]: 90%; Post-emergence efficacy against Alopecurus myosuroides (ALOMY) [23]: 100%; Post-emergence efficacy against Amaranthus retroflexus (AMARE) [24]: 100%
